Values after ≈ are worked out from the molar mass of the structure shown.
Tests used:
Test in all cases: MIC by agar dilution (NCCLS), 322 nosocomial Gram negative isolates, Athens 1998
Type in all cases: cell-based
Proteus mirabilis = details: Proteus mirabilis; n = 57 isolates
Enterobacter spp. = details: Enterobacter, n = 57 isolates; for MIC50: read-out: MIC50; for MIC90: read-out: MIC90
Acinetobacter spp. = details: Acinetobacter; n = 38 strains
Klebsiella pneumoniae = details: Klebsiella pneumoniae; n = 56 isolates
Pseudomonas aeruginosa = details: n = 57 isolates
Escherichia coli = details: n = 57 isolates

| MIC50 (Proteus mirabilis) | MIC90 (Proteus mirabilis) | MIC50 (Enterobacter spp.) | MIC90 (Enterobacter spp.) | MIC50 (Acinetobacter spp.) | MIC90 (Acinetobacter spp.) | MIC50 (Klebsiella pneumoniae) | MIC90 (Klebsiella pneumoniae) | MIC50 (Pseudomonas aeruginosa) | MIC90 (Pseudomonas aeruginosa) | MIC50 (Escherichia coli; Escherichia coli) | MIC90 (Escherichia coli; Escherichia coli) | MIC Range (Escherichia coli) | Compound |
| --- | --- | --- | --- | --- | --- | --- | --- | --- | --- | --- | --- | --- | --- |
| 0.125 µg/mL (≈ 0.26 µM) | 8 µg/mL (≈ 16.6 µM) | 0.125 µg/mL (≈ 0.26 µM) | 16 µg/mL (≈ 33.3 µM) | 16 µg/mL (≈ 33.3 µM) | 64 µg/mL (≈ 133 µM) | 0.06 µg/mL (≈ 0.125 µM) | 8 µg/mL (≈ 16.6 µM) | 8 µg/mL (≈ 16.6 µM) | > 64 µg/mL | – | – | – | CO/N=C(\C(=O)N[C@@H]1C(=O)N2C(C(=O)[O-])=C(C[N+]3(C)CCCC3)CS[C@H]12)c1csc(N)n1 [Cefepime] |
| 4 µg/mL (≈ 9.36 µM) | 16 µg/mL (≈ 37.4 µM) | > 64 µg/mL | > 64 µg/mL | > 64 µg/mL | > 64 µg/mL | 4 µg/mL (≈ 9.36 µM) | 16 µg/mL (≈ 37.4 µM) | – | – | 4 µg/mL (≈ 9.36 µM) | 16 µg/mL (≈ 37.4 µM) | 2 to 32 µg/mL | CO[C@@]1(NC(=O)Cc2cccs2)C(=O)N2C(C(=O)O)=C(COC(N)=O)CS[C@@H]21 [Cefoxitin] |

Reference: patent EP1561465A2, “Methods of use of fluoroquinolone compounds against bacteria” (LG Life Sciences, Ltd., priority 1999, dated 2001)
